# In patent publication US9079887B2, “Antiviral compounds” (priority 2012, dated 2015):
# pEC50: −log10 of the molar value. Like-named read-outs stand apart in the source and are kept apart here.
# Experiments:
# Type in all cases: cell-based
# [1] = test system: stable HCV 3a RLuc replicon cells (genotype 3a S52 replicon); test: HCV replicon assay, genotype 3a (stable); conditions: Hepatitis C virus; for pEC50: read-out: 3a (s); for EC50: read-out: 3a (s) (nM)
# Procedure: (§1) Antiviral potency (EC50) was determined using a Renilla luciferase (RLuc)-based HCV replicon reporter assay. To perform the assay for genotype 1 and 2a JFH-1, stable HCV 1a RLuc replicon cells (harboring a dicistronic genotype 1a H77 replicon that encodes a RLuc reporter), stable HCV 1b RLuc replicon cells (harboring a dicistronic genotype 1b Con1 replicon that encodes a RLuc reporter), or stable HCV 2a JFH-1 Rluc replicon cells (harboring a dicistronic genotype 2a JFH-1 replicon that encodes a RLuc reporter; with L31 present in NS5A) were dispensed into 384-well plates for EC50 assays. To perform the assay for genotype 2a (with M31 present in NS5A) or 2b, NS5A chimeric genotype 2a JFH-1 replicons that encodes a RLuc-Neo reporter and either genotype 2a J6 strain NS5A gene or genotype 2b MD2b-1 strain NS5A gene (both with M31 present) respectively, were either transiently transfected (t) into Huh-Lunet cells or were established as stably replicating replicon cells (s). Either cells were dispensed into 384-well plates for EC50 assays. To perform the assay for genotype 3 and 4, NS5A chimeric genotype 1b Con1 replicons that encodes a Pi-RLuc reporter and either genotype 3a S52 strain NS5A gene or genotype 4a ED43 strain NS5A gene respectively, were transiently transfected (t) into Huh-Lunet cells, which were subsequently dispensed into 384-well plates. Alternatively, stable HCV 3a RLuc replicon cells (s) (harboring a dicistronic genotype 3a S52 replicon that encodes an RLuc reporter), or stable HCV 4a RLuc replicon cells (s) (harboring a dicistronic genotype 4a ED43 replicon that encodes a RLuc reporter) were established in Huh-7-derived cells and dispensed into 384-well plates for EC50 assays. Compounds were dissolved in DMSO at a concentration of 10 mM and diluted in DMSO either manually or using an automated pipeting instrument. Serially 3-fold diluted compounds were either manually mixed with cell culture media and added to the seeded cells or directly added to the cells using an automated instrument. DMSO was used as a negative (solvent; no inhibition) control, and the protease inhibitor ITMN-191 was included at a concentration >100×EC50 as a positive control. 72 hours later, cells were lysed and Renilla luciferase activity quantified as recommended by the manufacturer (Promega-Madison, Wis.). Non-linear regression was performed to calculate EC50 values.
# [2] = test system: stable HCV 2a JFH-1 Rluc replicon cells (L31 present in NS5A); test: HCV replicon RLuc reporter assay, genotype 2a JFH-1; conditions: Hepatitis C virus; for pEC50: read-out: 2a JFH; for EC50: read-out: 2a JFH (nM)
# Procedure: as §1
# [3] = test system: stable HCV 1b RLuc replicon cells (genotype 1b Con1 replicon); test: HCV replicon RLuc reporter assay, genotype 1b; conditions: Hepatitis C virus; genotype 1b replicon, 72 hours
# Procedure: as §1
# [4] = HCV replicon assay, genotype 2b (stable); conditions: Hepatitis C virus, genotype 2a / genotype 2b; for pEC50: 2BS, read-out: 2b (s); for EC50: read-out: 2b (s) (nM)
# Procedure: as §1
# [5] = test system: stable HCV 1a RLuc replicon cells (genotype 1a H77 replicon); test: HCV replicon RLuc reporter assay, genotype 1a; conditions: Hepatitis C virus, genotype 1a replicon
# Procedure: as §1
# [6] = test system: stable HCV 4a RLuc replicon cells (genotype 4a ED43 replicon); test: HCV replicon assay, genotype 4a (stable); conditions: Hepatitis C virus; for pEC50: read-out: 4a (s); for EC50: read-out: 4a (s) (nM)
# Procedure: as §1
# [7] = HCV replicon assay, genotype 2a J6 (transient); conditions: Hepatitis C virus; for pEC50: read-out: 2a J6 (t); for EC50: read-out: 2a J6 (t) (nM)
# Procedure: as §1
Structure (SMILES),pEC50 [1],EC50 [1],pEC50 [2],EC50 [2],pEC50 [3],pEC50 [4],EC50 [4],pEC50 [5],pEC50 ([5]; activity range),pEC50 [6],EC50 [6],pEC50 [7],EC50 [7]
"COC[C@H]1C[C@@H](c2ncc(-c3ccc(-c4ccc(-c5[nH]c([C@@H]6CC[C@H](C)N6C(=O)[C@@H](NC(=O)OC)C(C)C)nc5Cl)cc4)cc3)[nH]2)N(C(=O)[C@@H](NC(=O)OC)C(C)C)C1 [AH, Methyl (S)-1-((2S,4S)-2-(5-(4′-(4-chloro-2-((2S,4S)-1-((R)-2-(methoxycarbonylamino)-3-methylbutanoyl)-5-methylpyrrolidin-2-yl)-1H-imidazol-5-yl)biphenyl-4-yl)-1H-imidazol-2-yl)-4-(methoxymethyl)pyrrolidin-1-yl)-3-methyl-1-oxobutan-2-ylcarbamate]",7.36 to 9.00,36.5 nM,> 10.00,0.066 nM,10.40,7.36 to 9.00,7.3 nM,10.43,> 10.00,> 10.00,0.02 nM,–,–
"COC[C@H]1C[C@@H](c2nc(Cl)c(-c3ccc(-c4ccc(-c5cnc([C@@H]6CC[C@H](C)N6C(=O)[C@@H](NC(=O)OC)C(C)C)[nH]5)cc4)cc3)[nH]2)N(C(=O)[C@@H](NC(=O)OC)C(C)C)C1 [AI, Methyl (S)-1-((2S,4S)-2-(4-chloro-5-(4′-(2-((2S,4S)-1-((R)-2-(methoxycarbonylamino)-3-methylbutanoyl)-5-methylpyrrolidin-2-yl)-1H-imidazol-5-yl)biphenyl-4-yl)-1H-imidazol-2-yl)-4-(methoxymethyl)pyrrolidin-1-yl)-3-methyl-1-oxobutan-2-ylcarbamate]",7.36 to 9.00,40.8 nM,> 10.00,0.075 nM,10.55,7.36 to 9.00,5.08 nM,10.47,> 10.00,> 10.00,0.018 nM,–,–
"COC[C@H]1C[C@@H](c2nc(Cl)c(-c3ccc(-c4ccc(-c5[nH]c([C@@H]6CC[C@H](C)N6C(=O)[C@@H](NC(=O)OC)C(C)C)nc5Cl)cc4)cc3)[nH]2)N(C(=O)[C@@H](NC(=O)OC)C(C)C)C1 [Example AG, Methyl (S)-1-((2S,4S)-2-(4-chloro-5-(4′-(4-chloro-2-((2S,4S)-1-((R)-2-(methoxycarbonylamino)-3-methylbutanoyl)-5-methylpyrrolidin-2-yl)-1H-imidazol-5-yl)biphenyl-4-yl)-1H-imidazol-2-yl)-4-(methoxymethyl)pyrrolidin-1-yl)-3-methyl-1-oxobutan-2-ylcarbamate]",7.36 to 9.00,17.6 nM,> 10.00,0.05 nM,10.72,7.36 to 9.00,2.56 nM,10.66,> 10.00,> 10.00,0.011 nM,–,–
"COC[C@H]1C[C@@H](c2ncc(-c3ccc(-c4ccc(-c5cnc([C@@H]6CC[C@H](C)N6C(=O)[C@@H](NC(=O)OC)C6CCOCC6)[nH]5)cc4)cc3)[nH]2)N(C(=O)[C@@H](NC(=O)OC)C2CCOCC2)C1 [Example AJ, Methyl [(1S)-2-{(2S,5S)-2-[5-(4′-{2-[(2S,4S)-1-[(2S)-2-[(methoxycarbonyl)amino]-2-(tetrahydro-2H-pyran-4-yl)acetyl]-4-(methoxymethyl)pyrrolidin-2-yl]-1H-imidazol-5-yl}biphenyl-4-yl)-1H-imidazol-2-yl]-5-methylpyrrolidin-1-yl}-2-oxo-1-(tetrahydro-2H-pyran-4-yl)ethyl]carbamate]",7.36 to 9.00,1.34 nM,> 10.00,0.079 nM,9.42,9.00 to 10.00,0.672 nM,9.73,9.00 to 10.00,9.00 to 10.00,0.133 nM,9.00 to 10.00,0.155 nM
"COC[C@H]1C[C@@H](c2ncc(-c3ccc(-c4ccc(-c5cnc([C@@H]6CC[C@H](C)N6C(=O)[C@@H](NC(=O)OC)C6CCOCC6)[nH]5)cc4)cc3)[nH]2)N(C(=O)[C@@H](NC(=O)OC)C(C)C)C1 [Example AL, Methyl {(2S)-1-[(2S,4S)-2-{5-[4′-(2-{(2S,5S)-1-[(2S)-2-[(methoxycarbonyl)amino]-2-(tetrahydro-2H-pyran-4-yl)acetyl]-5-methylpyrrolidin-2-yl}-1H-imidazol-5-yl)biphenyl-4-yl]-1H-imidazol-2-yl}-4-(methoxymethyl)pyrrolidin-1-yl]-3-methyl-1-oxobutan-2-yl}carbamate]",7.36 to 9.00,2.14 nM,> 10.00,0.035 nM,10.13,7.36 to 9.00,2.17 nM,10.28,> 10.00,> 10.00,0.04 nM,> 10.00,0.084 nM
"COC[C@H]1C[C@@H](c2ncc(-c3ccc(-c4ccc(-c5cnc([C@@H]6CC[C@H](C)N6C(=O)[C@@H](NC(=O)OC)C(C)C)[nH]5)cc4)cc3)[nH]2)N(C(=O)[C@@H](NC(=O)OC)C2CCOCC2)C1 [Example AN, Methyl [(1S)-2-[(2S,4S)-2-[5-(4′-{2-[(2S,5S)-1-{(2S)-2-[(methoxycarbonyl)-amino]-3-methylbutanoyl}-5-methylpyrrolidin-2-yl]-1H-imidazol-5-yl}biphenyl-4-yl)-1H-imidazol-2-yl]-4-(methoxymethyl)pyrrolidin-1-yl]-2-oxo-1-(tetrahydro-2H-pyran-4-yl)ethyl]carbamate]",7.36 to 9.00,2.19 nM,> 10.00,0.027 nM,10.19,7.36 to 9.00,2.14 nM,10.43,> 10.00,> 10.00,0.035 nM,9.00 to 10.00,0.207 nM
